In paper PMC4919790, “Allosteric modulation of AURKA kinase activity by a small-molecule inhibitor of its protein-protein interaction with TPX2” (Scientific Reports, 2016):
Where two headings read alike, the source gives them in different places.

Columns and labels:
[1] = target: T1, AURKA-TPX2 interaction (His-tagged AURKA123–403 / TAMRA-labelled TPX2 1–43) (Homo sapiens, UniProt O14965); assay: Fluorescence anisotropy (FA) competition assay: displacement of TAMRA-TPX2 1-43 from AURKA123-403
T1 sequence (O14965 123-403): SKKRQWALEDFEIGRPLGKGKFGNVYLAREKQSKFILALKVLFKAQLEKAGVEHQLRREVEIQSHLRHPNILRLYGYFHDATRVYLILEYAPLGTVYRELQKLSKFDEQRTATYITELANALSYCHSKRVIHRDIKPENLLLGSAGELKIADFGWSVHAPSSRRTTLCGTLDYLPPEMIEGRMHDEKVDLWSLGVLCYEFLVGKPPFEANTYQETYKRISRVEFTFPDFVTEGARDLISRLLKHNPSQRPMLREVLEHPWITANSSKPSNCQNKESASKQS
Excerpt: The HTS actives were resupplied and retested to check for dose-dependent inhibition of the PPI in FA assay.

[2] = target: T2, AURKAGSMGS-126-390 (non-phosphorylated, uncleaved His-tag) (Homo sapiens, UniProt O14965); assay: In vitro auto-phosphorylation assay (anti-pT288 Western blot); assay type: biochemical; conditions: AurkinA 100 μM, ATP 100 μM, protein 30 μM, up to 40 min
T2 construct: Aurora-A kinase construct AurAGSMGS-126-391 was purified as described above; made in house; host or cells: E. coli BL21 (DE3) with pUBS550, co-expressed with lambda phosphatase
T2 sequence (O14965 126-391): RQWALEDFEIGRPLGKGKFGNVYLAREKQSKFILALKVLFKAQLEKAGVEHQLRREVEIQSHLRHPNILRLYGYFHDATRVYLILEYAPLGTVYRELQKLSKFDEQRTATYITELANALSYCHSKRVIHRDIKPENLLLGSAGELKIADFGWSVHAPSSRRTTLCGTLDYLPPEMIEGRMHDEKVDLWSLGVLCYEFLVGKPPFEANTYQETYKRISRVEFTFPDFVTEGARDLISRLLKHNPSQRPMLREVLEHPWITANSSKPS
Experimental: It has been extensively reported that auto-phosphorylation of […] in the activation loop stimulates AURKA kinase activity. […] For autophosphorylation experiments Aurora-A kinase construct […]-126-391 was purified as described above but using buffers containing no ATP and His-tag was left on the N-terminus. […] Control sample contained JNJ-7706621 (100 μM) that was added to the reaction prior ATP. 15 ng of each sample were run in 11% SDS-PAGE gels. Western blots were prepared by electro-blotting SDS-PAGE gels onto PVDF membranes (Millipore) and probing with anti-penta-his-tag antibody (1:2000 dilution, Qiagen, 34660) or anti-Aurora-A phosphoT288 antibodies (1:1000 dilution, Abcam, ab195748), followed by HRP conjugated […]-mouse antibodies (GE Healthcare) or HRP conjugated goat anti-rabbit antibodies (Abcam), respectively.

[3] = target: T3, AURKA (Aurora-AG-126-390) (Homo sapiens, UniProt O14965); assay: Isothermal titration calorimetry; assay type: binding; conditions: for Ligand efficiency (Leff): calculated using Ki or Kd values; for Kd: 25 °C
T3 construct: was titrated into Aurora-AG-126-390 protein solution (30 μM); extra N-terminal Gly from cloning (the 'G' of the construct name); 6xHis (read by me from reverse primer 4); made in house; host or cells: E. coli BL21 (DE3) with pUBS550, co-expressed with lambda phosphatase (pBAT4-λPP)
T3 sequence (O14965 126-390): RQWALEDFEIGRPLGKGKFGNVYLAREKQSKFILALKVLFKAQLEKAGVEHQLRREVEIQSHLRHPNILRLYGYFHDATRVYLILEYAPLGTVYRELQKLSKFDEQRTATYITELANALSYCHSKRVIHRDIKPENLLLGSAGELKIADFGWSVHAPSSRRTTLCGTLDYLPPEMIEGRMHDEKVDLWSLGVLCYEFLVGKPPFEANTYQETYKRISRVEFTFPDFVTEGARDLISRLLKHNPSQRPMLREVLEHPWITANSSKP
Experimental: Calorimetric titrations were performed on an iTC200 (MicroCal, Inc.) device. Protein was buffer exchanged into ITC buffer (Buffer C with 2% DMSO). Titration experiments were performed at 25 °C with an initial injection (0.4 μL) at a duration of 0.8 s, followed by 19 injections (2 μL) at a duration of 4 s. […] Binding isotherms were fit by non-linear regression using the single-site model provided by Origin software (MicroCal, Inc.). The stoichiometry of the interaction (N), equilibrium association constant (Ka) and change of enthalpy (ΔH) were floated during the fitting.

[4] = target: T4, AURKA / mCherry-TPX2 1–43 (Homo sapiens, UniProt O14965); assay: Co-immunoprecipitation of AURKA and mCherry-TPX2 1-43 from HeLa cell lysates; conditions: cell lysates (500 µg) incubated 2 h, 25-400 µM, +DOX
T4 construct: endogenous in cells; host or cells: HeLa FlpIn TREx lysate; AURKA endogenous, mCherry-TPX2 1-43 stably transfected and doxycycline-induced
T4 sequence (O14965 1-403): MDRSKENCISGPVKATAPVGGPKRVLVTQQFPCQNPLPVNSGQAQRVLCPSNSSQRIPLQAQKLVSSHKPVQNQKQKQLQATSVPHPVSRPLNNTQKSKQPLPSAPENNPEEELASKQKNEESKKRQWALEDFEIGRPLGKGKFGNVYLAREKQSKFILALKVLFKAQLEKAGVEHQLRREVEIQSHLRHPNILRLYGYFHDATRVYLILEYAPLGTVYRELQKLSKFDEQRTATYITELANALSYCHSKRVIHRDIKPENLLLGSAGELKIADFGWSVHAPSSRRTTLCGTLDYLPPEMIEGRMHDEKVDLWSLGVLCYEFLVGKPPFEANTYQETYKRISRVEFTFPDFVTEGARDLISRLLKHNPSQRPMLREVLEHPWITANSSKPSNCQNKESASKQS
Experimental: Stable HeLa FlpIn TREx cell line expressing a fusion mCherry-TPX2_1–43 protein upon addition of doxycycline ([…]) was generated (Supplementary Methods). This cell line was used for further experiments. For immunoblotting, proteins were extracted in lysis buffer (50 mM HEPES, pH 7.4; 100 mM NaCl, 0.5% NP-40, 10 mM EDTA, 20 mM β-glycerophosphate, 1 mM DTT, 1 mM sodium orthovanadate, 1 mM PMSF, protease inhibitors and phosphatase inhibitor (Roche)). 0.5 mg of lysate was used for co-immunoprecipitation. mCherry pull down was performed using RFP-trap (Chromotrap) following manufacturers’ instructions. Extracts were resolved by SDS-PAGE, transferred to PVDF membrane, blocked in TBS-Tween (50 mM Tris pH 7.6, 150 mM NaCl, 0.1% Tween-20) plus 5% non-fat dried milk, and probed with primary antibodies at 4 °C overnight. Membrane was incubated with secondary mouse HRP (GE Healthcare, NXA931) and rabbit HRP antibodies (Jackson Laboratories, 111-036-047) for 1 h at room temperature and the signal was developed using ECL or ECL prime reagent (GE Healthcare).
co -‐immunoprecipitation
(1 picture or pasted object on this page, not shown here)

[5] = test system: AURKA on the spindle in mitotic HeLa cells; assay: High-content microscopy assay of AURKA mislocalisation from spindle microtubules; assay type: cell-based; conditions: Homo sapiens, 2 h treatment, % cells with below threshold AURKA intensity under TPX2 mask
Experimental: For quantitative determination of Aurora-A mislocalisation from spindle microtubules, cells were plated at a density of 0.75 × 10^5 cells per well of a clear flat bottom 96-well plate. On each plate a set of wells were treated with doxycycline as a positive control. After 24 h the compounds were diluted in […] Bortezomib (Selleck Chemicals) and treated for 2 h. Hereafter all steps were carried out at room temperature. The cells were fixed by addition of freshly prepared PHEM-buffered formaldehyde (100 μL per well) for 10 minutes (100 mM PIPES, 20 mM HEPES, 5 mM EGTA, 2 mM MgCl2, 0.2% TritonX-100, 6.4% formaldehyde). These were permeablised with 100 μl of PBS-T-T (1X PBS/0.1% Triton- 100/0.1% Tween-20) for 10 min, blocked in 3% BSA-PBS-T-T for 30 min. Hereafter all the steps including dilution of antibodies was done in the blocking solution. A cocktail of primary antibodies (50 μL, mouse anti-TPX2, Abcam 32795, 18D5-1, 1:500; rabbit anti-Aurora A, Millipore EP1008Y, 1:1000) for 1.5 h and washed thrice with the blocking solution. […]
The plates were scanned using Molecular Translocation protocol with 40X objective with 3 flurophore recognising channels. […] The software generated an overlay of TPX2-stained spindles (channel 2), and the average intensity of the Aurora-A (channel 3) within that mask was scored. […]

[6] = test system: phosphorylated T288 (pT288) AURKA in mitotic HeLa cells; assay: High-content AURKA T288-dephosphorylation assay; assay type: cell-based; conditions: Homo sapiens, read-out: EC50, % cells with below threshold pT288
Experimental: A modified version of the Aurora A mislocalisation assay using the same cells, doxycycline-treated controls, drugging plan, Bortezomib treatment, fixing protocol, Hoechst staining and secondary antibodies as above. The primary antibodies used were anti-phospho Aurora A Thr288 (Cell Signaling, #3079, 1:500) and anti-Histone H3 phospho S10 (Abcam, 14955, 1:2000). High-content imaging settings were the same as for the mislocalisation assay, but analysis was performed using the CellHealthProfiling v4 Bioapplication. Cells were identified in the Hoechst channel as above, and the resulting nuclear mask used for all subsequent measurements. Mitotic cells were selected from the images on the basis of phospho-histone H3 positivity, using a threshold 10 times above the image background. These selected cells were then measured for phospho-Aurora A staining intensity within a target area defined by expanding the nuclear mask by 8 pixels then collapsing it using a threshold for the phospho-Aurora channel, set to 3 times the background staining in this channel. Assay thresholds were calculated from the negative control wells of each plate as for the mislocalisation assay and ‘% dephosphorylated Aurora A T288’ scores were calculated for each well. EC50 values were calculated from four-parameter dose-response curves that were fitted using Prism GraphPad software (La Jolla, CA).

pT287/pT288 AURKA126–390 = target: T5, pT287/pT288 AURKA126–390 (Homo sapiens, UniProt O14965); assay: HTRF in vitro kinase assay (KinEASE, Cisbio); assay type: biochemical; conditions: excess inhibitor (25x Ki), absence of TPX2
T5 construct: a T287/T288 doubly-phosphorylated recombinant AURKA126–390 in the absence of TPX2; 6xHis (inferred from reverse primer 4 of AurAG-126-390); made in house; host or cells: E. coli BL21 (DE3) with pUBS550
T5 sequence (O14965 126-390): T3 sequence (O14965 126-390)
Experimental: To test this hypothesis, we used a commercially available in vitro kinase assay (KinEASE, Cisbio) to measure AURKA-dependent phosphorylation of a generic peptide substrate by homogeneous time-resolved fluorescence (HTRF) assay (Supplementary Fig. 9). Enzymatic phosphorylation occurred in the presence of the substrate peptide and ATP, and the phosphorylated substrate was subsequently detected in a proprietary antibody detection step. These studies were performed using a T287/T288 doubly-phosphorylated recombinant AURKA126–390 in the absence of TPX2.
The volume of enzymatic reaction was 10 μL, [AURKA] = 5 ng/well, excess propriatory peptide substrate (1 μM) and ATP (100 μM). The reaction was incubated for 10 min. MLN8237 is an ATP-competitive inhibitor used as a positive control. […] Error bars represent standard deviation (n = 3).

[7] = Average IC50, Supplementary Table 1, FA assay
[8] = Calculated Ki, Supplementary Table 1, free-concentration corrected Cheng-Prusov
[9] = IC50, inhibition of AURKA:TPX2 interaction in FA assay, Fig. 1b
[10] = Ki from FA competition assay, free-concentration corrected Cheng-Prusov equations

IC50 [1, 7] [µM]	Ki [1, 8] [µM]	N (stoichiometry, ITC fit) ([3]; single-site model fit) [Sites]	∆H (ITC fit) ([3]; single-site model fit) [kcal/mol]	∆S (ITC fit) ([3]; single-site model fit) [cal/mol/deg]	Ligand efficiency (Leff) [3]	IC50 [1, 9] [µM]	Ki [1, 10] [µM]	Compound	other results
34.4	7.4	–	–	–	–	–	–	O=C(O)c1cc(-c2cccc(Br)c2)nc2ccc(Cl)cc12 [AA29]	–
–	–	0.924	-23.09	-52.6	–	–	–	O=C(O)c1cc(-c2cccc(Br)c2)nc2c(F)cccc12 [AurkinA, 2-(3-bromophenyl)-8-fluoroquinoline-4-carboxylic acid]	Effect on auto-phosphorylation of AURKA (pT288) [2]: significantly delayed; -T∆S of binding ([3]; ITC): 15.7 kcal/mol; ∆H of binding ([3]; ITC): -23.1 kcal/mol; Effect on co-immunoprecipitation of AURKA with RFP (mCherry-TPX2 1-43) [4]: inhibited; EC50 [5]: 85 µM; EC50 [6]: 135 µM; Maximal inhibition of kinase activity (plateau) (pT287/pT288 AURKA126–390): ~ 75%
289	62.5	–	–	–	0.31	63	68	O=C(O)c1cc(-c2ccccc2)nc2ccccc12 [compound 3, 2-phenyl-4-carboxyquinoline, reference compound]	–
–	–	0.975 ±0.0300	-5.917 ± 0.2397	2.92	0.25	41	8.9	O=C(O)c1ccccc1NC(=O)c1cc(-c2ccccc2)nc2ccccc12 [compound 1]	Kd ([3]; read-out: Kd (ITC)): 10.6 µM; Kd ([3]; read-out: pKd (ITC) (converted)): 10.5 µM; K (association constant, ITC fit) ([3]; single-site model fit): 94700 ± 7610 M⁻¹; Effect of JNJ-7706621 on the compound's inhibition of the AURKA-TPX2 1-43 interaction ([1]; [JNJ] = 0.4 μM vs DMSO): unaffected
25.6	5.5	–	–	–	–	–	–	O=C(O)c1cc(-c2cccc(Br)c2)nc2ccccc12 [AA30]	–
